In the NIST ThermoML archive (doi:10.1016/j.fluid.2009.09.013):
± gives the expanded uncertainty stated by the source.

How the values were obtained:
[1] = Crystal; DTA
[2] = Molar enthalpy of transition or fusion; details: Metastable crystal; DSC

Which results are given for `CC(C)(C)c1cc(CCC(=O)OCC(COC(=O)CCc2cc(C(C)(C)C)c(O)c(C(C)(C)C)c2)(COC(=O)CCc2cc(C(C)(C)C)c(O)c(C(C)(C)C)c2)COC(=O)CCc2cc(C(C)(C)C)c(O)c(C(C)(C)C)c2)cc(C(C)(C)C)c1O`?
Normal melting temperature [1]: 112.60 ± 0.5 °C; Molar enthalpy of transition or fusion [2]: 15.8 ± 0.43 kcal/mol
